Here are results for two compounds from patent US20260176700A1, “TOXICITY MARKER FOR 5-FLUOROURACIL” (Oxford University Innovation Limited, priority 2022, published 2026).

Data set [1] deals with patients with reduced DPD activity. The following applies: patients with germline DPYD variants / reduced DPD activity, 5FU-related toxicity; cited from earlier work.
Data set [2] relates to colorectal cancer patients. In words: QUASAR 2 clinical trial: cardiovascular related adverse events under capecitabine. Format: in vivo, human. As to conditions: stage II/III colorectal cancer patients administered capecitabine (alone or plus bevacizumab), most common events cardiac chest pain and angina. The protocol: QUASAR 2, a randomised controlled trial of capecitabine+bevacizumab has been described previously (Kerr, R. S., et al. Lancet Oncol, 2016. 17(11):1543-1557; and Rosmarin, D., et al. Gut, 2015. 64(1):111-20). Briefly, participants were stage II/stage III colorectal cancer patients with performance status 0/1 and normal renal function. Patients were randomly assigned (1:1) to receive eight 3-week cycles of oral capecitabine alone (1250 mg/m^2 twice daily for 14 days followed by a break for 7 days) or the same regimen of oral capecitabine plus 16 cycles of 7.5 mg/kg bevacizumab by intravenous infusion over 90 min on day 1 of each cycle. All patients consented for use of biological samples and medical records in research. Cardiovascular toxicity was confirmed by two independent clinicians reviewing patient case report forms.
3% of colorectal cancer patients administered with capecitabine as part of the QUASAR 2 clinical trial experienced cardiovascular related adverse events. The most commonly described events were cardiac chest pain and angina. The inventors performed a genome wide association study to identify genetic markers associated with cardiovascular adverse events under an additive genetic model. Given the rarity of cardiovascular toxicity, variants with a minor allele frequency (MAF)<10% were filtered out. […]

Molecules are shown by their SMILES.

On to `O=c1[nH]cc(F)c(=O)[nH]1` [5FU, 5-flurouracil], for which, in data set [1], the “patients with reduced DPD activity who experience cardiotoxicity” value is recorded as 2-5%. For the compound `CCCCCOC(=O)Nc1nc(=O)n(C2OC(C)C(O)C2O)cc1F` (centres unmarked) [capecitabine, pentyl [1-(3,4-dihydroxy-5-methyltetrahydrofuran-2-yl)-5-fluoro-2-oxo-1H-pyrimidin-4-yl]carbamate], the “patients who experienced cardiovascular related adverse events” value in data set [2] came to 3%.
